Where “and” joins values, the source holds several entries; their conditions need not be identical. Equal values may be shown once.

The target in test [1] is T1, inhibitor-resistant mutant Plk4 (G95L) (Homo sapiens, UniProt O00444, G95L).
T1 construct: Plk4 assays used equal volumes of: (1) purified 6×His-tagged human Plk4 kinase domain (aa 2-275); 6xHis; made in house; host or cells: E. coli
In words: Plk4 (G95L) mutant kinase assay. It counts as biochemical. On the procedure: Kinase assays. […] Reactions were allowed to proceed for 4-16 hours at 25° C. Detection was performed using ADP-Glo reagent (Promega), following manufacturer's instructions. Luminescence was measured on an Infinite M1000 plate reader (Tecan). Data were fit using Prism (GraphPad) and Kis were calculated from IC50 data using the Cheng and Prusoff equation (37) or the Copeland formalism for tight-binding inhibitors (38).

A further test deals with T2, TNK1 (Homo sapiens, UniProt Q13470).
T2 construct: Reaction Biology (Malvern, Pa.), contract assay
T2 sequence (Q13470 1-666): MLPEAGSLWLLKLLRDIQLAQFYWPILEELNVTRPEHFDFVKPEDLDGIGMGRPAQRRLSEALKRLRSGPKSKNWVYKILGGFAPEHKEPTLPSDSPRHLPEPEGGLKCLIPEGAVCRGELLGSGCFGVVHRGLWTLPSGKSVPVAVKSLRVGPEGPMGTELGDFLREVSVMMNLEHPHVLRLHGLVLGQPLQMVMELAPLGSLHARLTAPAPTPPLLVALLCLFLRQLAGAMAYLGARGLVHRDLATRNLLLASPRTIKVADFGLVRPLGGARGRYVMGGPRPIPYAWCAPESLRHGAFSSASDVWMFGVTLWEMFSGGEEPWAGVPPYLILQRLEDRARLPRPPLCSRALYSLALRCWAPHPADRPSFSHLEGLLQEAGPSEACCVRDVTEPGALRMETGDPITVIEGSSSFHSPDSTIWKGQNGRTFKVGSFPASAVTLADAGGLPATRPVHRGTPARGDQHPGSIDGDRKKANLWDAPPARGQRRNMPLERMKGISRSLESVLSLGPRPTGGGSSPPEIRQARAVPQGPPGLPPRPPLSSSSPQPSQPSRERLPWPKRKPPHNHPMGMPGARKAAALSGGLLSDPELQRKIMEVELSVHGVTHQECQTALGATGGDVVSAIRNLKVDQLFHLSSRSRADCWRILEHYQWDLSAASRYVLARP
In words: Radiometric kinase assay, off-target TNK1. It counts as biochemical. How it is done: (§1) Aurora B and other radiometric kinase assays were performed by Reaction Biology (Malvern, Pa.). Kinome profiling of centrinone and centrinone-B was performed by DiscoveRx (San Diego, Calif.).

A further test deals with T3, RET (Homo sapiens, UniProt P07949).
T3 construct: Reaction Biology (Malvern, Pa.), contract assay
In words: Radiometric kinase assay, off-target RET. The test is classed as biochemical. How it is done: as §1

The target of test [2] is T4, human Plk4 kinase domain (aa 2-275) (Homo sapiens, UniProt O00444).
T4 construct: purified 6×His-tagged human Plk4 kinase domain (aa 2-275); 6xHis; made in house; host or cells: E. coli
T4 sequence (O00444 2-275): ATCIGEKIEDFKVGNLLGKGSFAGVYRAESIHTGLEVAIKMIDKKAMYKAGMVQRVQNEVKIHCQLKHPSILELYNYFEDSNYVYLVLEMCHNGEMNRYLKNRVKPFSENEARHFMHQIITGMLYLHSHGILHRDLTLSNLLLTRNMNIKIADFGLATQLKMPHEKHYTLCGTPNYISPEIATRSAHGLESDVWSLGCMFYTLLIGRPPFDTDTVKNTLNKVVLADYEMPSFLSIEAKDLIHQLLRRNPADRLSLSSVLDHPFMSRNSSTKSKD
In words: Plk4 kinase assay (ADP-Glo). The test is classed as biochemical. An outline of the steps: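 Enzyme at 2.5-10 nM final, pH 8.0, reacted 4-16 hours at 25° C; ADP generation read by ADP-Glo luminescence. Ki derived from IC50 by Cheng-Prusoff or, for tight binders, Copeland formalism.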
Background: ADP-Glo first removes unused ATP, then detects ADP through luciferase.

Another test has as its system centrosomes in cells. In words: Cellular centrosome depletion (cell line not stated). The test is classed as cell-based. To be noted: cellular activity, FIG. 1A. On the procedure:
Centriole depletion assay for compound screening. 1,500 NIH/3T3 cells or 3,500 HCT116 cells were seeded into 96-well SCREENSTAR microplates (Greiner) and treated with inhibitors in dose response, added from DMSO stocks. After 3 days, cells were fixed directly in the wells with 100% methanol (−20° C., 10 minutes). The fixed cells were washed with PBS and stained with primary antibodies against γ-tubulin and, for a subset of compounds, Cep192. Cells were then stained with Alexa-488 donkey anti-mouse and Alexa-647 goat anti-rabbit secondary antibodies. Cells were imaged using either a Model 500 LumaScope (Etaluma) or an EVOS FL (Advanced Microscopy Group/Life Technologies), and centriole depletion was determined by scoring the percentage of cells without visible γ-tubulin/Cep192 foci.

The next test deals with FLT4/VEGFR3 (Homo sapiens, UniProt P35916). In words: Radiometric kinase assay, off-target FLT4/VEGFR3. It counts as biochemical. On the procedure:
as §1

A further test has as its target T5, Aurora B (Homo sapiens, UniProt Q96GD4).
T5 construct: Reaction Biology (Malvern, Pa.), contract assay
In words: Aurora B radiometric kinase assay (Reaction Biology). It counts as biochemical. On the procedure: Aurora B and other radiometric kinase assays were performed by Reaction Biology (Malvern, Pa.).

A further test has as its target T6, JAK2 (Homo sapiens, UniProt O60674).
T6 construct: Reaction Biology (Malvern, Pa.), contract assay
In words: Radiometric kinase assay, off-target JAK2. The test is classed as biochemical. On the procedure: as §1

Another test addresses T7, LRRK2 (Homo sapiens, UniProt Q5S007).
T7 construct: Reaction Biology (Malvern, Pa.), contract assay
In words: Radiometric kinase assay, off-target LRRK2. The test is classed as biochemical. On the procedure: as §1

A further test addresses T8, SRPK1 (Homo sapiens, UniProt Q96SB4).
T8 construct: Reaction Biology (Malvern, Pa.), contract assay
In words: Radiometric kinase assay, off-target SRPK1. It counts as biochemical. On the procedure: as §1

Another test deals with T9, human Aurora A (Homo sapiens, UniProt O14965).
T9 construct: purchased Millipore
T9 sequence (O14965 1-403): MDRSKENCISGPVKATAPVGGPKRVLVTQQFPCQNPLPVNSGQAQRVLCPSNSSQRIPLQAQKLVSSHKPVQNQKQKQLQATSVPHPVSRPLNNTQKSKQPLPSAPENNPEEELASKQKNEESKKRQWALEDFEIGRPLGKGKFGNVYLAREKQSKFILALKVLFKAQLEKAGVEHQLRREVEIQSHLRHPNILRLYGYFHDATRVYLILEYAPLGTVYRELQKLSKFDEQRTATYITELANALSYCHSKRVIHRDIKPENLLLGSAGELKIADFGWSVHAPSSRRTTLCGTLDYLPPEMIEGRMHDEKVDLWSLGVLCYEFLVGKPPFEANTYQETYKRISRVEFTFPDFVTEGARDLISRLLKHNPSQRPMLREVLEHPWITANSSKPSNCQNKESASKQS
In words: Aurora A kinase assay (ADP-Glo). The test is classed as biochemical. How it is done: LRRASLG)+inhibitors arrayed in dose response (added as described above). […] Detection, measurement and data analysis were performed as described above.

The next test concerns the target ROS/ROS1 (Homo sapiens, UniProt P08922). In words: Radiometric kinase assay, off-target ROS/ROS1. It counts as biochemical. On the procedure:
as §1

A further test relates to p38. To be noted: RPE1, osmotic stress. On the procedure:
MAPKAPK-2 activation assay. RPE1 cells on 10 cm plates were treated with DMSO or 10 μM SB203580 for 2 hours prior to induction of stress.
Western blotting. Asynchronously growing cells from 10 cm plates were harvested at 50-80% confluence and lysed by sonication in RIPA buffer+protease and phosphatase inhibitor cocktail (Thermo Scientific). Cell extracts were stored at −80° C. until use. Before use, concentrations of extracts were normalized using a Bio-Rad Protein Assay (Bio-Rad). For every sample, 25-50 μg protein/lane was run on Mini-PROTEAN gels (Bio-Rad), and transferred to PVDF membranes using a TransBlot Turbo system (Bio-Rad).

In another test the test system is p53. In words: Western blotting, RPE1. The test is classed as cell-based, human. How it is done: Western blotting. […] Cell extracts were stored at −80° C. until use.
For p53, p-p53(S33), p-p53(S392), p-p38(T180/Y182), acetyl-p53(K382), LATS2, YAP, MDM2, MAPKAPK-2 and GFP, blocking and antibody incubations were performed in TBS-T+5% non-fat dry milk. For p-YAP(S127), p-p53(S9), p-p53(S15), p-p53(S20), p-p53(S37), p-p53(S315), p21 and p-MAPKAPK-2(T334), blocking and antibody incubations were performed in TBS-T+5% BSA. Detection was performed using HRP-conjugated secondary antibodies (GE Healthcare) with WesternBright Sirius (Advansta) or SuperSignal West Femto (Thermo Scientific) substrates. Membranes were imaged on a ChemiDoc MP system (Bio-Rad). Membranes were stripped and reprobed with antibodies against α-tubulin or GAPDH as loading controls.
On the technique in general: Immunoblotting shows a protein as a band on a membrane.

A further test concerns RPE1 cells. In words: Passaging assay and flow cytometry, RPE1. It counts as cell-based, human. To be noted: RPE1, addition Day 0, washout Day 8. On the procedure: Passaging assays. Cells were seeded into 10 cm tissue culture plates at 150,000 (HeLa, NIH/3T3 and RPE1) or 200,000 cells/plate (primary fibroblasts). Compounds were added at the indicated concentrations. At 4-day intervals, cells were harvested, counted using a TC10 cell counter, and re-seeded into new plates at the densities above. Results are from 2 independent experiments.
Flow cytometry. Cells were seeded into 15 cm tissue culture plates such that each plate was 50-80% confluent at the time of harvesting. Cells were de-adhered by trypsinization and pelleted in 15 ml tubes by centrifugation. Each pellet was resuspended in 0.3 mL PBS, and 0.7 mL ice-cold 100% ethanol was added to the tube while gently vortexing. Fixed cells were stored at 4° C. for up to 2 weeks. For DNA content analysis, fixed cells were pelleted, washed twice with PBS, and resuspended in 0.5 mL PBS+2% BSA and Alexa488-conjugated anti-p-H3(Ser10) antibody. Samples were incubated for 1 hour at 4° C., then washed twice with PBS+2% BSA. Pellets were resuspended in 1 mL PBS+2% BSA, 10 μg/ml propidium iodide (Sigma-Aldrich), 500 µg/ml RNAse A (Thermo Scientific). Samples were incubated at 37° C. for 30 minutes, then transferred to 12×75 mm tubes for analysis. Data were acquired using FACSDiva software on a LSR II flow cytometer (BD Biosciences). 50,000 cells were analyzed per condition. Cell cycle fitting was performed using ModFit LT (Verity Software House).

Where [3] appears, read: off-target from DiscoveRx kinome profiling.

T7 sequence (Q5S007 whole entry): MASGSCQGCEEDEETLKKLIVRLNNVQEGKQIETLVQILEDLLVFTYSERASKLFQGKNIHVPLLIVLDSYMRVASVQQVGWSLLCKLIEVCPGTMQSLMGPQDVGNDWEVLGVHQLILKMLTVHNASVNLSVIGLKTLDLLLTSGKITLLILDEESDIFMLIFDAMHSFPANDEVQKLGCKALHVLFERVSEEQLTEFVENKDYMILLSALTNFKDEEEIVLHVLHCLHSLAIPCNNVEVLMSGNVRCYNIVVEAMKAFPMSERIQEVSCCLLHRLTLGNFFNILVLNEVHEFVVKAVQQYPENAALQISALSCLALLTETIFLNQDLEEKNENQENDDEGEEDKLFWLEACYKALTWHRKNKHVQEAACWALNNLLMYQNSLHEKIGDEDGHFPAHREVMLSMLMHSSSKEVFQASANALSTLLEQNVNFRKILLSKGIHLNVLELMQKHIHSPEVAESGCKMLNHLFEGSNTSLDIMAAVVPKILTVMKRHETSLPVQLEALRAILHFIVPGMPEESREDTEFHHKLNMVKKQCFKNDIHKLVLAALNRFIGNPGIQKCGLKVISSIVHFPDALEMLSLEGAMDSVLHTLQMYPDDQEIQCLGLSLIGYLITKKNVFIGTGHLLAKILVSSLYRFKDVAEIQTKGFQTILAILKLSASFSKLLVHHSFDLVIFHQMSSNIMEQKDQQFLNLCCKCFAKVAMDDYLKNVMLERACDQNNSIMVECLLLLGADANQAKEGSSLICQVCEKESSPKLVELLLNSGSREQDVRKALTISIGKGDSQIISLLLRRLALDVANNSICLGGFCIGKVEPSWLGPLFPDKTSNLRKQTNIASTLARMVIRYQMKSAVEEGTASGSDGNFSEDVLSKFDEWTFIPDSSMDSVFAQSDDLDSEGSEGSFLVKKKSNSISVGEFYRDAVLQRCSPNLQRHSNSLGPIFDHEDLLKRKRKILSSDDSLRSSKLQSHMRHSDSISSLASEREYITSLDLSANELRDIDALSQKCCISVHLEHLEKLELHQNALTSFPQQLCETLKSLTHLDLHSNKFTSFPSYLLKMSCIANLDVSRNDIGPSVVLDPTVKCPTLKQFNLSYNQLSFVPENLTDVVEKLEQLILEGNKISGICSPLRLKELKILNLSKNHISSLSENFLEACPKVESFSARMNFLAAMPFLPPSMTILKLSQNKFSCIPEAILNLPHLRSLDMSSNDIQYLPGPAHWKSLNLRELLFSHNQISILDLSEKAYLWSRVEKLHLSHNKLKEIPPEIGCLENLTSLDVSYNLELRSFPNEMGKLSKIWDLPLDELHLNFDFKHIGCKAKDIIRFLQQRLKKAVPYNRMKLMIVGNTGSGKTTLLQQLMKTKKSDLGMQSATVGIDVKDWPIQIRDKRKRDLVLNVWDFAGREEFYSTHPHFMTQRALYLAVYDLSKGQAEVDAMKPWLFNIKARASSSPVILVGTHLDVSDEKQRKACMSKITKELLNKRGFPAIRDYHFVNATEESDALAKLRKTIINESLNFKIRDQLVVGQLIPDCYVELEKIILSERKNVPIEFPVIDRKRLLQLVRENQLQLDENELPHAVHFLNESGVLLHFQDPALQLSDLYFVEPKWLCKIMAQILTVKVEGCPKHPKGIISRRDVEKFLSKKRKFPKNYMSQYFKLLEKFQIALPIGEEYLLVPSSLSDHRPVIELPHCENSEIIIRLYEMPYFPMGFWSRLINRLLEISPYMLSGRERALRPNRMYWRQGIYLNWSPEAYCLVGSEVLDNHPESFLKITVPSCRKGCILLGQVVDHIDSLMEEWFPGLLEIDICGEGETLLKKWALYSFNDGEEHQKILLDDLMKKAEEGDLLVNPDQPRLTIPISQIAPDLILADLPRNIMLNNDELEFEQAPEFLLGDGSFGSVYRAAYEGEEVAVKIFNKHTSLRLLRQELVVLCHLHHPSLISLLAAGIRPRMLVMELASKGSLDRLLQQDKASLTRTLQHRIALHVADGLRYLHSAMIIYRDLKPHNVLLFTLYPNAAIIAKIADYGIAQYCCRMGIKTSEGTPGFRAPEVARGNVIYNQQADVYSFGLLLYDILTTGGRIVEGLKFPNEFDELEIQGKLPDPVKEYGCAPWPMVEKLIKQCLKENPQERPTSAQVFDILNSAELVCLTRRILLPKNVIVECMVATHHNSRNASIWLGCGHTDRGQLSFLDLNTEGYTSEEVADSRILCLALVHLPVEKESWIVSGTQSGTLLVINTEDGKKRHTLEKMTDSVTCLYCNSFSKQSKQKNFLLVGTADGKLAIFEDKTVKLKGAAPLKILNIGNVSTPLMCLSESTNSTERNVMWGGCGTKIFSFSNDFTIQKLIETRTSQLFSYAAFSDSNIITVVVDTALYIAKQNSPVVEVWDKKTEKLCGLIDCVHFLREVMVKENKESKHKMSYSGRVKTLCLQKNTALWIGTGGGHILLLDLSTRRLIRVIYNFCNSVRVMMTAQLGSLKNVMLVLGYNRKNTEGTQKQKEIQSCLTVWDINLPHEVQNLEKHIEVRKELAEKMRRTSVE
Sequence of ROS/ROS1 (P08922 28-2347): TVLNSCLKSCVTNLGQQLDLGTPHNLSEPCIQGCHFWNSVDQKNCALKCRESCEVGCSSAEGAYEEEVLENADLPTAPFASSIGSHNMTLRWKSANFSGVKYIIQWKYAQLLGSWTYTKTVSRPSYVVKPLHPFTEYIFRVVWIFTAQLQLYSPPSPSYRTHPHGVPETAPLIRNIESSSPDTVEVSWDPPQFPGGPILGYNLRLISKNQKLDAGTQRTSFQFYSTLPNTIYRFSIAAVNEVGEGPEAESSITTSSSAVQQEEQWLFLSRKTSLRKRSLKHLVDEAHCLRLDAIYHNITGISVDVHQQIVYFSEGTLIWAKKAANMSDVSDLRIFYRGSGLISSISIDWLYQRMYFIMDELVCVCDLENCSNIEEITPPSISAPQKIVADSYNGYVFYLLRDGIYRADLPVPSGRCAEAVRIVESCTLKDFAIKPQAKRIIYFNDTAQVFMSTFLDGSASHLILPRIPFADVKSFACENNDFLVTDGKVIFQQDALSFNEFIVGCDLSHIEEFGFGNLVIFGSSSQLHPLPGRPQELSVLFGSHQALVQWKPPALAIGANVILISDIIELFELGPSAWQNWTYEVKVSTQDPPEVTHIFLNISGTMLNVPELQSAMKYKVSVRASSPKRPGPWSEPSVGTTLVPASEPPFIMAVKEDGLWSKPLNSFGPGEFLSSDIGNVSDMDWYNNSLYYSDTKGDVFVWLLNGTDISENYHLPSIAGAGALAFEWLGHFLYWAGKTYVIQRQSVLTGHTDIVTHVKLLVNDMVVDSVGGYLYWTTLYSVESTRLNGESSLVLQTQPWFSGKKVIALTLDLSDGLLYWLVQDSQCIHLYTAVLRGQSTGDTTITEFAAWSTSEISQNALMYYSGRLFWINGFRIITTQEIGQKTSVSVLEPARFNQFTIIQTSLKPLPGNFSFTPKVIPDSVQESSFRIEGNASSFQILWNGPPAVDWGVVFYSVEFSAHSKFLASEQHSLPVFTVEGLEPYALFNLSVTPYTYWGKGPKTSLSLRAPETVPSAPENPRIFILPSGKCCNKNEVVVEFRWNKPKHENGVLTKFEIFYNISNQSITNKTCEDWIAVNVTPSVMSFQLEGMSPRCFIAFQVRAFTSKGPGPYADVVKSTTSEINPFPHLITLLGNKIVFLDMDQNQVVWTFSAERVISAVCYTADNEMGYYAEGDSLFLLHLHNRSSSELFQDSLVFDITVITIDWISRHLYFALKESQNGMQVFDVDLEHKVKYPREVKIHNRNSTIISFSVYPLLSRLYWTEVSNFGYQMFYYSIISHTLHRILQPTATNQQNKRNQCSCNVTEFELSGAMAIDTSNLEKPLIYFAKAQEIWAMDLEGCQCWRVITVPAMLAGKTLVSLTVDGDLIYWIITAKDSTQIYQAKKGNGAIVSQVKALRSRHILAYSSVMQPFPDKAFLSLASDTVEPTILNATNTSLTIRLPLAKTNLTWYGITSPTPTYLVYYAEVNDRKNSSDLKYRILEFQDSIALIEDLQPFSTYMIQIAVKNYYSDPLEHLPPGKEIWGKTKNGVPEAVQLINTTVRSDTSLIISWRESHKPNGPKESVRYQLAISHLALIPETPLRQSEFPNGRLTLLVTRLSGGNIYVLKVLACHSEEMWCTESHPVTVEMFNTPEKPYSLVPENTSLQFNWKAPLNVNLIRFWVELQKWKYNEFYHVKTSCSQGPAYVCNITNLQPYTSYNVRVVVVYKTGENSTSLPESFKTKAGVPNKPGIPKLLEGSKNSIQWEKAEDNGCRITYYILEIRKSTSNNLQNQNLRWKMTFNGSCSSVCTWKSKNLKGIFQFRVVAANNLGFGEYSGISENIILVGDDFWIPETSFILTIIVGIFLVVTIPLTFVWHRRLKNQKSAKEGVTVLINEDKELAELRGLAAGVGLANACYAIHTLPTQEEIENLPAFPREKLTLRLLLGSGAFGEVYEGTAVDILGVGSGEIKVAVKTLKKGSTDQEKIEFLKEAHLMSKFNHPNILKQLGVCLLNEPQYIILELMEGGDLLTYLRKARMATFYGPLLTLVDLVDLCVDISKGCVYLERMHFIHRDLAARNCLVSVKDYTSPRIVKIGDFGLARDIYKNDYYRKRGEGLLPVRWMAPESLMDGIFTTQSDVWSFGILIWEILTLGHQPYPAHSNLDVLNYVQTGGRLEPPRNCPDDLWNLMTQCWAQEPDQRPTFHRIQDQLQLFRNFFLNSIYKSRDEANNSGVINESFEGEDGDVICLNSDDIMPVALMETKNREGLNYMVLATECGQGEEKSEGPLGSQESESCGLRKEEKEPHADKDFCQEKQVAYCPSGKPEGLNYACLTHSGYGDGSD
T1 sequence (O00444 2-275 G95L): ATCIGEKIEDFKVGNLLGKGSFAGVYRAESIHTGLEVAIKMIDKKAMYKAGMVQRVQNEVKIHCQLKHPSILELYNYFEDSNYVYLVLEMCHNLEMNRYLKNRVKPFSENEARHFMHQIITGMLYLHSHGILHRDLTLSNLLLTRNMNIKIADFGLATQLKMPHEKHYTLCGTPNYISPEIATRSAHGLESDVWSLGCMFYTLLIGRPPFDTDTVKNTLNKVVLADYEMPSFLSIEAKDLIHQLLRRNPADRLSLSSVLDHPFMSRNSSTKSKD

For `COc1c(Nc2cc(C)[nH]n2)nc(Sc2ccc(S(=O)(=O)Cc3cccc([N+](=O)[O-])c3F)cc2F)nc1N1CCCCC1` [Centrinone-B, 2-((2-fluoro-4-((2-fluoro-3-nitrobenzyl)sulfonyl)phenyl)thio)-5-methoxy-N-(5-methyl-1H-pyrazol-3-yl)-6-(piperidin-1-yl)pyrimidin-4-amine], the Ki in [1] was 498 nM; on TNK1 (setting [3]), 6.04 nM; at RET (setting [3]) it was 195 nM; in [2], 0.6 nM and 0.59 nM; on FLT4/VEGFR3 (setting [3]) it was 58 nM; on Aurora B it was 5.6 µM. The Ki at JAK2 (setting [3]) was more than 500 nM; at LRRK2 (setting [3]), 7.66 nM; at SRPK1 (setting [3]), more than 500 nM; on human Aurora A, 1240 nM; at ROS/ROS1 (setting [3]) it was 90.1 nM. Besides, the “Plk4 selectivity, Ki(Plk4 G95L)/Ki(Plk4)” value in [1] is given as 847. The “Plk4 selectivity, Ki(TNK1)/Ki(Plk4)” value at TNK1 was found to be 10. Besides, at RET, the “Plk4 selectivity, Ki(RET)/Ki(Plk4)” value turned out to be 332. In the test with centrosomes in cells, this compound came in with a centrosome depletion at of 500 nM. For the same compound, at FLT4/VEGFR3, the “Plk4 selectivity, Ki(FLT4/VEGFR3)/Ki(Plk4)” value worked out at 99. Moreover, the “Plk4 selectivity, Ki(Aurora B)/Ki(Plk4)” value on Aurora B was 9523. Moreover, the “Plk4 selectivity, Ki(JAK2)/Ki(Plk4)” value on JAK2 is listed as more than 847. Also, at LRRK2, the “Plk4 selectivity, Ki(LRRK2)/Ki(Plk4)” value worked out at 13. The “Plk4 selectivity, Ki(SRPK1)/Ki(Plk4)” value at SRPK1 was more than 847. The “Plk4 selectivity, Ki(Aurora A)/Ki(Plk4)” value on human Aurora A is reported as 2108. In addition, the “Plk4 selectivity, Ki(ROS/ROS1)/Ki(Plk4)” value at ROS/ROS1 is 153.
For `C[S+]([O-])c1ccc(-c2nc(-c3ccncc3)c(-c3ccc(F)cc3)[nH]2)cc1` (stereo not shown) [SB203580], the “phosphorylation of MAPKAPK-2 by p38” value in the test on p38 is “blocks phosphorylation of MAPKAPK-2”.
For the compound `CCOc1cc(C(C)(C)C)ccc1C1=N[C@@](C)(c2ccc(Cl)cc2)[C@@](C)(c2ccc(Cl)cc2)N1C(=O)N1CCN(CCCS(C)(=O)=O)CC1` [R7112], the p53 levels entry in the test with p53 is recorded as “raised p53 levels”. In addition, the proliferation after washout entry in the test with RPE1 cells is on record as “led to resumption of proliferation”.

For orientation: Ki means a dissociation constant, usually derived from enzyme kinetics or from competition with a known ligand. Higher therefore signals weaker binding.

(Values after patent US10752612B2, “PLK4 inhibitors” (LUDWIG INSTITUTE FOR CANCER RESEARCH LTD, priority 2015, dated 2020).)
